One assay relates to HCV genotype 1. As to the kind of experiment: Example 2: Phase II study of treatment-naïve patients, plasma HCV RNA by Roche COBAS TaqMan HCV/HPS assay. The note with it: addition to PegIntron/REBETOL combination therapy, 28 and 48 week regimens. The assay is classed as in vivo, human. As to the method: The effectiveness of a lead-in period with interferon and ribavirin combination therapy prior to the addition of an HCV protease inhibitor was further evaluated in a study of 595 treatment-naïve patients infected with HCV genotype 1. In this study, boceprevir (compound of Formula 1a) is being evaluated, compared to a control of PegIntron® (peginterferon alfa-2b) at 1.5 mcg/kg QW plus REBETOL® (ribavirin, USP) (800-1400 mg/day) for a treatment period of 48 weeks, in three treatment regimens: • P/R Lead-In +B/P/R: • PegIntron (1.5 mcg/kg QW) in combination with REBETOL (800-1400 mg/day) during a first treatment period of 4 weeks followed by adding boceprevir (800 mg TID) to the combination during a second treatment period of 24 or 44 weeks; thus, the total treatment time with PegIntron and REBETOL was 28 or 48 weeks; • B/P/R: • boceprevir (800 mg TID) in combination with PegIntron (1.5 mcg/kg QW) plus REBETOL (800-1400 mg/day) for a single treatment period of 28 or 48 weeks; and • B/P/Low-dose R: • boceprevir (800 mg TID) in combination with PegIntron (1.5 mcg/kg QW) plus low-dose REBETOL (400-1000 mg/day) for a single treatment period of 48 weeks. […]
Plasma HCV RNA levels were measured using the Roche COBAS TaqMan® HCV/HPS assay (Roche Molecular Systems, Somerville, N.J.).

In the next assay the test system is Hepatitis C. The note with it: by week four; VX-950 alone; cited from earlier work.

On to `CC(C)(C)NC(=O)N[C@H](C(=O)N1CC2C([C@H]1C(=O)NC(CC1CCC1)C(=O)C(N)=O)C2(C)C)C(C)(C)C` (some centres unmarked) [boceprevir], for which, in the assay with HCV genotype 1, the “SVR compared to the PegIntron/REBETOL control” value is “markedly increased SVR”.
On to `CCC[C@H](NC(=O)[C@@H]1[C@H]2CCC[C@H]2CN1C(=O)[C@@H](NC(=O)[C@@H](NC(=O)c1cnccn1)C1CCCCC1)C(C)(C)C)C(=O)C(=O)NC1CC1` [VX-950], for which the “treated patients showing evidence of negative HCV status” value with Hepatitis C is listed as 79%.

Source of the values: patent publication US20100226885A1, “METHOD OF TREATING HEPATITIS C PATIENTS” (priority 2007, published 2010).
